Assay results: patent publication US4497822A, “Insecticidal N-benzoyl-N'-phenyl-N'-(R-thio)ureas” (Shell Oil Company, priority 1982, dated 1985)

Assays:
[1] = test system: Spodoptera littoralis larvae; assay: Insecticidal activity, sprayed diet (Test 1 (a)), toxicity vs parathion; assay type: in vivo, Egyptian cotton leafworm (Spodoptera littoralis); details: second instar larvae; mortality 7 days after spraying; 50% mortality basis; standard parathion = 100
Description: (§1) The insecticidal and ovicidal activities of the compounds of the invention were assessed employing the pests, Egyptian cotton leafworm (Spodoptera littoralis, S.l.), mosquito (Aedes aegypti, A.a.) and eggs of Spodoptera littoralis, S.l.ov.
(§2) The test methods used for each species are described below. In each case the tests were conducted under normal insectary conditions (28° C.[…]; fluctuating light and humidity).
(§3) In each instance, the toxicity of the compound of the invention was compared to that of a standard pesticide (parathion), its relative toxicity then being expressed in terms of the relationship between the amount of compound of the invention and the amount of the standard pesticide required to produce the same percentage (50%) of mortality in the test insect. By assigning the standard pesticide an arbitrary rating of 100, the toxicities of the compounds of the invention were expressed in terms of the toxicity indices, which compares the toxicity of the compounds of the invention with that of the standard pesticide.
(a) Spodoptera littoralis--A solution or suspension of the test compound was made up over a range of concentrations in 10% acetone/water containing 0.025% Triton X100 (as surfactant). These solutions were sprayed using a logarithmic spraying machine onto petri dishes containing a nutritious diet on which the Spodoptera littoralis larvae had been reared. When the spray deposit had dried each dish was infested with 10 second instar larvae. Mortality assessments were made 7 days after spraying.

[2] = test system: Aedes aegypti larvae; assay: Insecticidal activity, larvae in treated water (Test 1 (b)), toxicity vs parathion; assay type: in vivo, mosquito (Aedes aegypti); set-up: key: Toxicity Index: parathion = 100; 200 = twice as active, 50 = half; details: early fourth instar larvae; final mortality when all larvae emerged as adults or died; 50% mortality basis; standard parathion = 100
Description: as §1, §2
as §3, with “pesticide. That is to say, a test compound having a Toxicity Index of 50 would be half as active, while one having a Toxicity Index of 200 would be twice as active as the standard pesticide.” for “pesticide.”
(b) Aedes aegypti--Several solutions of the test compound of varying concentration were prepared in acetone. 100 microliter quantities were added to 100 milliliters of tap water, the acetone being allowed to evaporate off. Ten early fourth instar larvae were placed in the test solution; after 48 hours the (surviving) larvae were fed with animal feed pellets, and the final percentage mortality assessed when all the larvae had either pupated and emerged as adults or died.

[3] = test system: eggs of Spodoptera littoralis; assay: Ovicidal activity, sprayed eggs (Test 1 (c)), toxicity vs parathion; assay type: in vivo, Egyptian cotton leafworm (Spodoptera littoralis); details: eggs less than 24 hours old; approximately five days; 50% mortality basis; standard parathion = 100
Description: as §1, §2
as §3, with “pesticide. That is to say, a test compound having a Toxicity Index of 50 would be half as active, while one having a Toxicity Index of 200 would be twice as active as the standard pesticide.” for “pesticide.”
(c) Spodoptera littoralis (ovicide)--Solutions as described in (a) above were prepared. Eggs less than 24 hours old were obtained as follows. Adult Spodoptera littoralis were held in large plastic cylinders containing blotting paper on which the moths laid their batches of eggs. Egg batches containing approximately 60-70 eggs were cut from the blotting paper with a 1 cm surround. These were placed, eggs uppermost, on filter paper in the deeper half of 5 cm disposable petri dishes and each batch of eggs was then sprayed with a different test solution or the control solution. The dishes were covered until the control eggs had hatched, approximately five days. The percentage ovicidal mortality was then calculated.

SMILES | Toxicity Index S.l. [1] | Toxicity Index A.a. [2] | Toxicity Index S.l.ov. [3]
CC(C)c1ccccc1SN(C(=O)NC(=O)c1ccccc1Cl)c1ccc(OC(F)(F)F)cc1 [Example 32] | 88 | 28 | 2000
O=C(NC(=O)N(Sc1ccc(Cl)cc1)c1ccc(OC(F)(F)F)cc1)c1ccccc1Cl [Example 33] | 57 | 44 | 1300
Cc1ccccc1SN(C(=O)NC(=O)c1c(F)cccc1F)c1ccc(Cl)cc1 [Example 9] | 43 | 31 | 1400
O=C(NC(=O)N(SC(Cl)(Cl)Cl)c1ccc(Oc2ccc(C(F)(F)F)cc2Cl)cc1)c1ccccc1Cl [Example 7, 2-Chloro-N-[[[4-[2-chloro-4-(trifluoromethyl)phenoxy]phenyl]-N-[(trichloromethyl)thio]amino]carbonyl]benzamide] | 1800 | 55 | 0
O=C(NC(=O)N(Sc1ccccc1)c1ccc(C(F)(F)F)cc1)c1c(F)cccc1F [Example 15] | 170 | 50 | 1800
Cc1ccccc1SN(C(=O)NC(=O)c1ccccc1Cl)c1ccc(Oc2ccc(C(F)(F)F)cc2Cl)cc1 [Example 31] | 960 | 240 | 0
O=C(NC(=O)N(Sc1ccccc1[N+](=O)[O-])c1ccc(Oc2ccc(C(F)(F)F)cc2Cl)cc1)c1ccccc1Cl [Example 35] | 2500 | 82 | 0
O=C(NC(=O)N(Sc1ccc([N+](=O)[O-])cc1)c1ccc(C(F)(F)F)cc1)c1c(F)cccc1F [Example 21] | 96 | 13 | 
O=C(NC(=O)N(SC(Cl)(Cl)Cl)c1ccc(OC(F)(F)F)cc1)c1ccccc1Cl [Example 25] | 140 | 28 | 1300
O=C(NC(=O)N(SC(Cl)(Cl)Cl)c1ccc(Cl)cc1)c1c(F)cccc1F [Example 14] | 10 | 6 | 560
O=C(NC(=O)N(Sc1ccccc1[N+](=O)[O-])c1ccc(Cl)cc1)c1c(F)cccc1F [Example 5, N-[[[4-Chlorophenyl]-N-[(2-nitrophenyl)thio]amino]carbonyl]-2,6-difluorobenzamide] | 90 | 220 | 0-4
Cc1cccc(SN(C(=O)NC(=O)c2c(F)cccc2F)c2ccc(Cl)cc2)c1 [Example 10] | 20 | 24 | 1400
Cc1ccccc1SN(C(=O)NC(=O)c1ccccc1Cl)c1ccc(OC(F)(F)F)cc1 [Example 4, 2-Chloro-N-[[[4-(trifluoromethoxy)phenyl]-N-[(2-methylphenyl)thio]amino]carbonyl]benzamide] | 110 | 77 | 2200
O=C(NC(=O)N(Sc1ccccc1)c1ccc(Oc2ccc(C(F)(F)F)cc2Cl)cc1)c1ccccc1Cl [Example 29] | 930 | 330 | 0
O=C(NC(=O)N(Sc1ccc(Br)cc1)c1ccc(C(F)(F)F)cc1)c1c(F)cccc1F [Example 19] | 240 | 10 | 1500
O=C(NC(=O)N(Sc1ccccc1[N+](=O)[O-])c1cc(Cl)c(Oc2ccc([N+](=O)[O-])cc2)c(Cl)c1)c1c(F)cccc1F [Example 38] | 330 | 30 | 0
Cc1ccccc1SN(C(=O)NC(=O)c1c(F)cccc1F)c1ccc(C(F)(F)F)cc1 [Example 16] | 550 |  | 2700
O=C(NC(=O)N(Sc1ccc(Cl)cc1)c1ccc(Cl)cc1)c1c(F)cccc1F [Example 12] | 17 | 14 | 
